The values below come from patent publication US5310745A, “Antiviral compounds” (priority 1992, dated 1994).

Holding throughout (assay type): cell-based
The subject of series [1] is Sheep choroid plexus (SCP) cells. Description: Toxicity of compounds in control wells without virus, graded morphologically. To be noted: 0 to 4 scale, Table 1. Also noted: key: 0: no toxicity; 4: total cell lysates. Here is the method:
(§1) Sheep choroid plexus (SCP) cells were obtained from American Type Culture Collection (ATCC) catalogue number CRL 1700 and were routinely passaged in vitro in Dulbecco's Modified Eagles (DME) medium supplemented with 20% fetal bovine serum (FBS). SCP cells were passaged once per week at a 1:2 or 1:3 split ratio. Visna was titrated by plaque assay in six-well plates. Virus pools were stored at -70° C.
(§2) SCP cells were cultured in 6-well plates to confluence. Wells were washed two times with serum free Minimal Essential Medium (MEM) to remove FBS. 0.2 ml of virus was added per well in MEM supplemented with 4 mM glutamine and gentamycin. After 1 hour adsorption, the virus was aspirated from each well. The appropriate concentration of each compound in 5 ml of Medium 199 (M-199) supplemented With 2% lamb serum, 4 mM glutamine, 0.5% agarose and gentamycin was added to each well. Cultures were incubated at 37° C. in a humidified 5% CO2 incubator for 3-4 weeks. To terminate the test: cultures were fixed in 10% formalin, the agar removed, the monolayers stained with 1% crystal violet and plaques counted. Each compound concentration was run in triplicate. […] 0 is no toxicity observed while 4 is total lysing of the cell monolayer.

The next series relates to visna virus. In words: Plaque reduction assay, inhibition of visna virus in vitro. Also noted: key to Antiviral Activity: A: active compound; I: inactive compound. The following applies: for Antiviral Activity: Table 1; for inhibition at 1 µM / inhibition at 10 µM / inhibition at 100 µM / inhibition at 1000 µM: Visna-maedi virus; for inhibition at 1 µM / inhibition at 10 µM / inhibition at 100 µM / % Plaque Reduction / inhibition at 1000 µM: Table 2.
Text: Visna virus, a lentivirus genetically very similar to the AIDS virus, is pathogenic for sheep and goats. See Sonigo et al., Cell 42, 369-382 (1985); Haase, Nature 322, 130-136 (1986). Inhibition of visna virus replication in vitro as a useful model for human immunodeficiency virus (HIV) and its inhibition by test compounds has been described by Franket al., Antimicrobial Agents and Chemotherapy 31 (9), 1369-1374 (1987). The N-butyl derivative of 1,5-dideoxy-1,5-imino-D-glucitol, also referred to as n-butyl-deoxynojirimycin (N-Bu-DNJ), was used as a control standard for comparison with various novel compounds of this invention.
Various compounds as prepared above were tested for inhibition of visna virus in vitro in a plaque reduction assay as follows:
as §1, §2

For series [2], the system named is Sheep choroid plexus (SCP) cells. Description: Toxicity of compounds in control wells without virus, graded morphologically. As to the method:
as §1, §2

For series [3] the test system is unchanged. Described as above. The arrangement: key: 0: no toxicity observed; 4: total lysing of the cell monolayer. To be noted: graded 0 to 4, Table 2. As to the method: as §1, §2

For `CC(=O)OC[C@H]1NC[C@H](OC(C)=O)[C@@H](OC(C)=O)[C@@H]1OC(C)=O` [Example 3, 1,5-Dideoxy-1,5-imino-D-glucitol, tetraacetate], the Toxicity in series [1] (0.5 mM) and in series [1] (1.0 mM) was 0 throughout. In addition, the “Antiviral Activity” value with visna virus (0.5 mM) and in the series with visna virus (1.0 mM) was “A” throughout.

As to `CC(=O)OC[C@@H]1[C@@H](OC(C)=O)[C@H](OC(C)=O)[C@@H](OC(C)=O)CN1C(=O)Cc1ccccc1` [Example 4, 1,5-(Phenylacetylimino)-1,5-dideoxy-D-glucitol-tetraacetate], the Toxicity in series [1] (0.5 mM) and in series [1] (1.0 mM) was 0 each time. Further, the “Antiviral Activity” value in the series on visna virus (0.5 mM) and in the series on visna virus (1.0 mM) was “A” each time.

As to `CC(=O)OC[C@@H]1[C@@H](OC(C)=O)[C@H](OC(C)=O)[C@@H](OC(C)=O)CN1C(=O)c1ccccc1` [Example 5, 1,5-(Benzoylimino)-1,5-dideoxy-D-glucitol, tetraacetate], the Toxicity in series [1] (0.1 mM), in series [1] (0.5 mM) and in series [1] (1.0 mM) was 0 each time. Also, the “Antiviral Activity” value in the series with visna virus (0.1 mM), in the series with visna virus (0.5 mM) and with visna virus (1.0 mM) was “A” each time.

As for `CCCCN1C[C@H](OC(C)=O)[C@@H](OC(C)=O)[C@H](OC(C)=O)[C@H]1COC(C)=O` [Example 7, 1,5-(Butylimino)-1,5-dideoxy-D-glucitol, tetraacetate], the Toxicity in series [1] (0.1 mM), in series [1] (0.5 mM) and in series [1] (1.0 mM) was 0 each time. Also, the “Antiviral Activity” value with visna virus (0.1 mM), in the series on visna virus (0.5 mM) and in the series with visna virus (1.0 mM) was “A” throughout.

For `CCOC(=O)CC(=O)N1C[C@H](OC(C)=O)[C@@H](OC(C)=O)[C@H](OC(C)=O)[C@H]1COC(C)=O` [Example 8, 1,5-(Ethylmalonylimino)-1,5-dideoxy-D-glucitol, tetraacetate], the Toxicity in series [1] (0.1 mM) and in series [1] (1.0 mM) was 0 each time. The “Antiviral Activity” value in the series with visna virus (0.1 mM) and in the series with visna virus (1.0 mM) was “A” each time.

For `CCCCCCCCCN1C[C@H](OC(C)=O)[C@@H](OC(C)=O)[C@H](OC(C)=O)[C@H]1COC(C)=O` [Example 14, 1,5-(Nonylimino)-1,5-dideoxy-D-glucitol, tetraacetate], the Toxicity in series [1] (0.001 mM) is 0; in series [1] (0.01 mM), 0; in series [1] (1.0 mM), 4; in series [2] (0.1 mM, 0 to 4 scale, Table 1) it was 2. The “Antiviral Activity” value in the series on visna virus (0.001 mM) is on record as “A”; with visna virus (0.01 mM) it was “A”; in the series on visna virus (0.1 mM) it was “A”; in the series on visna virus (1.0 mM) it was “Toxic”.

`CCCCN1C[C@H](OC(=O)CC)[C@@H](OC(=O)CC)[C@H](OC(=O)CC)[C@H]1COC(=O)CC` [Example 17, 1,5-(Butylimino)-1,5-dideoxy-D-glucitol, tetrapropionate]: the Toxicity stood at 4 in series [1] (0.1 mM) and 2 in series [2] (0.01 mM, 0 to 4 scale, Table 1). Further, the “Antiviral Activity” value is listed as “A” with visna virus (0.01 mM) and “Toxic” in the series on visna virus (0.1 mM).

For the compound `CCCCN1C[C@H](OC(=O)C(C)C)[C@@H](OC(=O)C(C)C)[C@H](OC(=O)C(C)C)[C@H]1COC(=O)C(C)C` [Example 22, 1,5-(Butylimino)-1,5-dideoxy-D-glucitol, tetraisobutyrate], the Toxicity in series [1] (0.01 mM), in series [1] (0.1 mM) and in series [1] (1.0 mM) was 0 in each case. For the same compound, the “Antiviral Activity” value in the series on visna virus (0.01 mM), in the series on visna virus (0.1 mM) and in the series with visna virus (1.0 mM) was “A” in each case.

For `CCCCN1C[C@H](OC(C)=O)[C@@H](OC(C)=O)[C@@H]2O[C@H](c3ccccc3)OC[C@H]21` [Example 24, 1,5-(Butylimino)-1,5-dideoxy-4R,6-O-(phenylmethylene)-D-glucitol, diacetate], the Toxicity in series [1] (1.0 mM) is on record as 0. The “Antiviral Activity” value in the series with visna virus (1.0 mM) is reported as “A”.

With `CCCC(=O)OC[C@H]1NC[C@H](OC(=O)CCC)[C@@H](OC(=O)CCC)[C@@H]1OC(=O)CCC` [Example 42, 1,5-Dideoxy-1,5-imino-D-glucitol, tetrabutyrate], the Toxicity in series [3] (0.001 mM) is reported as 0; in series [3] (1.0 mM), 4; in series [2] (0.01 mM, graded 0 to 4, Table 2) it was 1; in series [2] (0.1 mM, graded 0 to 4, Table 2), 2. Also, the inhibition at 1 µM in the series on visna virus (0.001 mM) is 31%. In addition, in the series with visna virus (0.01 mM), the inhibition at 10 µM was 13%. Besides, in the series on visna virus (0.1 mM), the inhibition at 100 µM stood at 97%.

Take `CCCCCCCCCCc1ccc(C(=O)N2C[C@H](OC(C)=O)[C@@H](OC(C)=O)[C@H](OC(C)=O)[C@H]2COC(C)=O)cc1` [Example 47, 1,5-[(4-Decylbenzoyl)imino]-1,5-dideoxy-D-glucitol, tetraacetate]: the Toxicity turned out to be 0 in series [3] (0.001 mM); 0 in series [3] (0.01 mM); 4 in series [3] (1.0 mM); 1 in series [2] (0.1 mM, graded 0 to 4, Table 2). In addition, the “% Plaque Reduction” value in the series on visna virus (1.0 mM) was “Toxic”. In the series with visna virus (0.001 mM), the inhibition at 1 µM turned out to be 9%. The inhibition at 10 µM with visna virus (0.01 mM) was 64%. The inhibition at 100 µM in the series on visna virus (0.1 mM) was found to be 86%.

Take `CCCCN1C[C@H](OC(=O)C(C)(C)C)[C@@H](OC(=O)C(C)(C)C)[C@H](OC(=O)C(C)(C)C)[C@H]1COC(=O)C(C)(C)C` [Example 50A]: the Toxicity came to 0 in series [3] (0.01 mM); 4 in series [3] (1.0 mM); 1 in series [2] (0.1 mM, graded 0 to 4, Table 2). In addition, the “% Plaque Reduction” value in the series on visna virus (1.0 mM) is “Toxic”. In addition, the inhibition at 10 µM with visna virus (0.01 mM) is 20%. The inhibition at 100 µM with visna virus (0.1 mM) was 49%.

For the compound `CCCCN1C[C@H](OC(=O)C(C)(C)C)[C@@H](O)[C@H](OC(=O)C(C)(C)C)[C@H]1COC(=O)C(C)(C)C` [Example 50B], the Toxicity in series [3] (0.001 mM) worked out at 0; in series [3] (0.01 mM) it was 0; in series [2] (0.1 mM, graded 0 to 4, Table 2) it was 1; in series [2] (1.0 mM, graded 0 to 4, Table 2), 2. Also, the inhibition at 1 µM in the series on visna virus (0.001 mM) was 17%. In the series on visna virus (0.01 mM), the inhibition at 10 µM was determined as 33%. The inhibition at 100 µM in the series with visna virus (0.1 mM) turned out to be 75%. In the series on visna virus (1.0 mM), the inhibition at 1000 µM was found to be 76%.

For the compound `CC(=O)OC[C@@H]1[C@@H](OC(C)=O)[C@H](OC(C)=O)[C@@H](OC(C)=O)CN1C(=O)CCOc1ccc(Cl)cc1` [Example 51, 1,5-Dideoxy-1,5-[[3-(4-chlorophenoxy)-1-oxopropyl]-imino]-D-glucitol, tetraacetate], the Toxicity in series [3] (0.001 mM) turned out to be 0; in series [3] (0.01 mM), 0; in series [3] (1.0 mM), 4; in series [2] (0.1 mM, graded 0 to 4, Table 2) it was 1. Further, the “% Plaque Reduction” value in the series with visna virus (1.0 mM) was “Toxic”. Besides, the inhibition at 1 µM in the series on visna virus (0.001 mM) came out at 12%. For the same compound, the inhibition at 10 µM in the series with visna virus (0.01 mM) was found to be 57%. Besides, in the series with visna virus (0.1 mM), the inhibition at 100 µM amounted to 91%.

Take `CC(=O)OC[C@@H]1[C@@H](OC(C)=O)[C@H](OC(C)=O)[C@@H](OC(C)=O)CN1C(=O)c1ccc(-c2ccccc2)cc1` [Example 53, 1,5-[([1,1'-biphenyl]-4-ylcarbonyl)imino]-1,5-dideoxy-D-glucitol, tetraacetate]: the Toxicity in series [3] (0.001 mM) worked out at 0; in series [3] (0.01 mM), 0; in series [3] (1.0 mM), 4; in series [2] (0.1 mM, graded 0 to 4, Table 2), 2. In addition, in the series with visna virus (1.0 mM), the “% Plaque Reduction” value was “Toxic”. The inhibition at 1 µM in the series with visna virus (0.001 mM) amounted to 28%. For the same compound, the inhibition at 10 µM in the series on visna virus (0.01 mM) was determined as 81%. The inhibition at 100 µM in the series with visna virus (0.1 mM) stood at 100%.

On to `CC(=O)OC[C@@H]1[C@@H](OC(C)=O)[C@H](OC(C)=O)[C@@H](OC(C)=O)CN1CCCC(F)(F)F` [Example 63, 1,5-(4,4,4-Trifluorobutylimino)-1,5-dideoxy-D-glucitol, tetraacetate], for which the Toxicity in series [3] (0.1 mM) is given as 0; in series [2] (1.0 mM, graded 0 to 4, Table 2) it was 2. For the same compound, the inhibition at 100 µM with visna virus (0.1 mM) was 2%. Besides, in the series on visna virus (1.0 mM), the inhibition at 1000 µM was 90%.

With `CCCC(=O)OC[C@@H]1[C@@H](O)[C@H](OC(=O)CCC)[C@@H](OC(=O)CCC)CN1CCCCCC(F)(F)F` [Example 66, 1,5-(6,6,6-Trifluorohexylimino)-1,5-dideoxy-D-glucitol, 2,3,6-tributyrate], the Toxicity was 0 in series [3] (0.001 mM); 0 in series [3] (0.01 mM); 1 in series [2] (0.1 mM, graded 0 to 4, Table 2); 2 in series [2] (1.0 mM, graded 0 to 4, Table 2). Further, in the series on visna virus (0.001 mM), the inhibition at 1 µM was -3%. In the series with visna virus (0.01 mM), the inhibition at 10 µM was found to be 38%. In addition, the inhibition at 100 µM with visna virus (0.1 mM) was 88%. In the series with visna virus (1.0 mM), the inhibition at 1000 µM worked out at 100%.
